Reference: patent US20040242669A1, “Method of treating deficits associated with brain injury” (priority 2003, published 2004)
Marks after values point to notes of the source that are not given here.

What was measured:
Format in all cases: in vivo, rat
[1] = tested on: animals with hypobaric hypoxia-induced amnesia; test: Shuttle-box active avoidance acquisition, hypobaric hypoxia-induced amnesia; conditions: for Learners / CARs: hypobaric hypoxia; for CARs: mean ± S.E.M.
Protocol: (§1) Male rats of the Sprague-Dawley strain (purchased from Charles River, Italy) weighing 280±20 g were used throughout all experiments. The animals were housed two-three to a cage under a constant light-dark cycle (lights on between 8.00 and 20.00) at 21° C. Commercial food and tap water were available ad libitum. All animals were used only once in the behavioral experiments.
(§2) Ropinirole (ropinirole hydrochloride, SmithKline Beecham, Italy) and dihydroergocryptine (DHECP) α-dihydroergocryptine methanesulfonate, Monsanto, Italy) were dissolved in saline and injected subcutaneously (s.c.) at the dose of 0.5 and 1 mg/kg/day for 7 days. In the experiments with kainate-induced convulsions, ropinirole or DHECP were injected intravenously (i.v.) 30 min prior, and again at the same time of the intracerebroventricular (i.c.v) injection on kainic acid; Control animals received an injection of saline alone with the same procedure.
(§3) Shuttle-box active avoidance acquisition was studied in a single session test as described in Bohus and De Wied, Endogenous Peptides and Learning and Memory Processes. Academic Press, New York, pp59-775, (1981). Briefly, the rats were trained to avoid the unconditioned stimulus (US) of a scrambled electrical foot-shock (0.20 mA) delivered through the grid floor. The conditioned stimulus (CS) was a buzzer presented for 3 s prior to the US. If no escape occurred within 20 s of CS/US presentation, the shock was terminated. A maximum of 30 conditioning trials were given with a variable intertrial interval averaging 60 s. The learning criterion was five consecutive conditioned avoidance responses (CARs). For those animals that reached the criterion in less than 30 trials, the remaining trials until 30 were considered as CARs. Indexes of avoidance behaviour were the total number of CARs and the percent number of learners per group.
(§4) In the first experiment, the effects of ropinirole or DHECP were studied on amnesia induced by hypobaric hypoxia in rats. After a 7-day pretreatment with ropinirole, DHECP or saline, a group of animals was subjected to acute hypobaric hypoxia by means of a hypobaric chamber (Chantiers et Ateliers de Bretagne, France) causing depression to 300 mmHg (Boismare et al., Gerentology, 24, 6-13 (1978)). After 3 min in the chamber, the animals were removed and admitted for behavioral testing. Intact control rats were also introduced into the chamber but not subjected to hypobaric hypoxia.

[2] = tested on: animals with hypobaric hypoxia-induced amnesia; test: Open field spontaneous motor activity, hypobaric hypoxia; conditions: for Ambulation / Defecation / Grooming / Rearing: 5 min open field, mean ± S.E.M.
Protocol: as §1, §2
(§5) Spontaneous motor activity was scored in a circular open field arena as described by Weijnen and Slangen, Pituitary, Adrenal and the Brain, pp221-235 (1982). Animals were put inside a circular lit-up arena, with the bottom divided into 27 areas of equal size.
as §4

[3] = tested on: animals with chronic brain occlusive ischemia; test: Shuttle-box active avoidance acquisition, chronic brain occlusive ischemia; conditions: for CARs: chronic brain occlusive ischemia (2 months), mean ± S.E.M.
Protocol: as §1
(§6) A number of animals were subjected to a manipulation of the four major arteries of the brain with a method similar to that described by Pulsinelli et al., Ann. Neurol, 11, 491-498 (1982). Both vertebral arteries were cauterised under sodium pentobarbital anaesthesia and polyethylene cuffs PE-10 were placed loosely around the common carotid arteries without completely interrupting carotid blood flow. Two months after operation, all surviving animals showing no neurological gross abnormalities were admitted to drug treatment. Animals undergoing a sham operation were considered as controls.
as §2
as §3, with “Academic” for “Shuttle-box active avoidance acquisition was studied in a single session test as described in Bohus and De Wied, Endogenous Peptides and Learning and Memory Processes. Academic”
(§7) Animals with 2-month chronic brain occlusive ischemia, were subjected to a treatment with ropinirole, DHECP or saline for 7 days. At the end of treatment, the animals were admitted to behavioral testing. Controls were those animals with sham manipulation of brain arteries.

[4] = tested on: animals with chronic brain occlusive ischemia; test: Step-through passive avoidance, chronic brain occlusive ischemia; conditions: for Latency: median latency to re-enter dark box, max 300 s
Protocol: as §1, §6, §2, §7

[5] = tested on: animals with chronic brain occlusive ischemia; test: Open field spontaneous motor activity, chronic brain occlusive ischemia; conditions: for Ambulation / Defecation / Grooming / Rearing: 5 min open field, mean ± S.E.M.
Protocol: as §1, §6, §2, §5, §7

[6] = tested on: reduced glutathione in brain areas of rats subjected to chronic brain occlusive ischemia; test: Brain glutathione content and redox index after chronic brain occlusive ischemia; conditions: for reduced glutathione content: mean ± S.E.M.
Source text: as §6
At the end of the behavioral studies, the brain of animals sacrificed by decapitation were taken and rapidly frozen for analysis. Dissection and weighing were carried out at −25° C. The frozen forebrains were immediately powered under liquid nitrogen by an electromechanical apparatus and stored at […]. The assay of reduced and oxidized glutathione by 5,5′-dithibis-(2-nitrobenzoic acid) in frozen forebrain powder was carried out within 3 h, utilizing perchloric acid and N-ethylmaleimide in presence of ethylenediamidetetraacetic acid for the extraction procedure (Tietze, Anal Biochem, 27, 502-522, (1969)).
as §7
All animals used for hypobaric hypoxia induced amnesia and for chronic brain occlusive ischemia was sacrificed at the end behavioral procedure for biochemical analyses.

SMILES: CC(C)C[C@H]1C(=O)N2CCC[C@H]2[C@]2(O)O[C@](NC(=O)[C@@H]3C[C@@H]4c5cccc6[nH]cc(c56)C[C@H]4N(C)C3)(C(C)C)C(=O)N12 [DHECP, α-dihydroergocryptine methanesulfonate]
- number of CARs and percent number of learners in the shuttle-box (effect of treatment, in words) ([1]; hypobaric hypoxia-induced amnesia, summary of Table 1): increase in these behavioral parameters, however, for the latter only with the greater dose
- Learners ([1]; 0.5 mg/kg/day s.c. for 7 days): 30^c percent
- CARs ([1]; 0.5 mg/kg/day s.c. for 7 days): 13.0 ± 1.3^a
- Learners ([1]; 1 mg/kg/day s.c. for 7 days): 80^d percent
- CARs ([1]; 1 mg/kg/day s.c. for 7 days): 18.1 ± 1.2^b
- Ambulation ([2]; 0.5 mg/kg/day s.c. for 7 days): 68.9 ± 6.6^b
- Defecation ([2]; 0.5 mg/kg/day s.c. for 7 days): 3.4 ± 0.9
- Grooming ([2]; 0.5 mg/kg/day s.c. for 7 days): 22.2 ± 2.3
- Rearing ([2]; 0.5 mg/kg/day s.c. for 7 days): 16.4 ± 1.3^a,b
- Ambulation ([2]; 1 mg/kg/day s.c. for 7 days): 73.1 ± 5.6^a,b
- Defecation ([2]; 1 mg/kg/day s.c. for 7 days): 3.7 ± 1.3
- Grooming ([2]; 1 mg/kg/day s.c. for 7 days): 23.3 ± 2.1
- Rearing ([2]; 1 mg/kg/day s.c. for 7 days): 16.5 ± 1.9^b
- ambulation and rearing (effect of treatment, in words) ([2]; vs intact controls and saline-treated hypoxic animals): higher
- CARs ([3]; 0.5 mg/kg/day s.c. for 7 days): 10.6 ± 1.1^a
- CARs ([3]; 1 mg/kg/day s.c. for 7 days): 14.1 ± 1.1^a
- Learners ([3]; chronic brain occlusive ischemia, 0.5 mg/kg/day s.c. for 7 days): 20^b percent
- Learners ([3]; chronic brain occlusive ischemia, 1 mg/kg/day s.c. for 7 days): 10^b percent
- cognitive parameters of the active avoidance test (effect of treatment, in words) ([3]; chronic brain occlusive ischemia, Table 2): No statistically significant change
- Latency ([4]; 0.5 mg/kg/day s.c. for 7 days): 46^c,d
- Latency ([4]; 1 mg/kg/day s.c. for 7 days): 58^d
- latency to re-enter the dark-box (effect of treatment, in words) ([4]; Table 2): increased
- Ambulation ([5]; 0.5 mg/kg/day s.c. for 7 days): 68.9 ± 6.6^a,e
- Defecation ([5]; 0.5 mg/kg/day s.c. for 7 days): 3.4 ± 0.9^a
- Grooming ([5]; 0.5 mg/kg/day s.c. for 7 days): 22.2 ± 2.3
- Rearing ([5]; 0.5 mg/kg/day s.c. for 7 days): 16.4 ± 1.3^e
- Ambulation ([5]; 1 mg/kg/day s.c. for 7 days): 73.1 ± 5.6^a,e
- Defecation ([5]; 1 mg/kg/day s.c. for 7 days): 3.7 ± 1.3^a
- Grooming ([5]; 1 mg/kg/day s.c. for 7 days): 23.3 ± 2.1
- Rearing ([5]; 1 mg/kg/day s.c. for 7 days): 16.5 ± 1.9^e
- ambulation and rearing (effect of treatment, in words) ([5]; to a level similar to that of intact controls): increased
- glutathione redox index (glutathione reduced/glutathione oxidized ratio) ([6]; Cortex, 0.5 mg/kg): 2.5
- reduced glutathione content ([6]; Cortex, 0.5 mg/kg): 2.3 ± 0.1 mM
- glutathione redox index (glutathione reduced/glutathione oxidized ratio) ([6]; Cortex, 1 mg/kg): 2.3
- reduced glutathione content ([6]; Cortex, 1 mg/kg): 2.6 ± 0.2 mM
- glutathione redox index (glutathione reduced/glutathione oxidized ratio) ([6]; Hippocampus, 0.5 mg/kg): 1.8
- reduced glutathione content ([6]; Hippocampus, 0.5 mg/kg): 2.0 ± 0.2 mM
- glutathione redox index (glutathione reduced/glutathione oxidized ratio) ([6]; Hippocampus, 1 mg/kg): 2.2
- reduced glutathione content ([6]; Hippocampus, 1 mg/kg): 2.3 ± 0.3 mM
- glutathione redox index (glutathione reduced/glutathione oxidized ratio) ([6]; Hypothalamus, 0.5 mg/kg): 2.6
- reduced glutathione content ([6]; Hypothalamus, 0.5 mg/kg): 2.8 ± 0.2 mM
- glutathione redox index (glutathione reduced/glutathione oxidized ratio) ([6]; Hypothalamus, 1 mg/kg): 2.7
- reduced glutathione content ([6]; Hypothalamus, 1 mg/kg): 2.7 ± 0.2 mM
- glutathione redox index (glutathione reduced/glutathione oxidized ratio) ([6]; Striatum, 0.5 mg/kg): 0.7
- reduced glutathione content ([6]; Striatum, 0.5 mg/kg): 1.8 ± 0.2 mM
- glutathione redox index (glutathione reduced/glutathione oxidized ratio) ([6]; Striatum, 1 mg/kg): 0.7
- reduced glutathione content ([6]; Striatum, 1 mg/kg): 1.7 ± 0.2 mM
